Results: patent US20260000658A1, “METHODS FOR THE TREATMENT OF PROLIFERATIVE GLOMERULONEPHRITIS” (INSTITUT NATIONAL DE LA SANTÉ ET DE LA RECHERCHE MÉDICALE, priority 2022, published 2026)

How the values were obtained:
Assay type in all cases: in vivo, mouse
uninephrectomized mice = assay: Uninephrectomized PIK3CA^Pod-HO mice, vehicle or alpelisib; settings: PIK3CA^WT mice, 2 weeks treatment
Source text: (§1) A. Urinary albumin to creatinine ratio of PIK3CAWT and PIK3CAPod-HO mice 2 weeks following uninephrectomy and treated either with vehicle or alpelisib (n=8-9 mice per group). B. Serum creatinine levels, C. blood urea nitrogen (BUN) levels of PIK3CAWT and PIK3CAPod-HO mice 2 weeks following uninephrectomy and treated either with vehicle or alpelisib (n=8-9 mice per group). D. Glomerular lesion score of PIK3CAWT and PIK3CAPod-HO mice 2 weeks following uninephrectomy and treated either with vehicle or alpelisib (n=8-9 mice per group). E. Trajectory of albumin to creatinine ratio in the urine of PIK3CAPod-HO mice following uninephrectomy and treated with either vehicle or alpelisib (n=8-9 mice per group).
(§2) For the uninephrectomy experiments, the right kidneys were removed under anesthesia. For the medical treatment of mice, 50 mg kg −1 alpelisib (MedChem Tronica) in 1% carboxymethylcellulose (Sigma Aldrich)+0.5% Tween (Sigma Aldrich) or vehicle (1% carboxymethylcellulose+0.5% Tween) was administered by oral gavage daily for the indicated periods of time. Blood and urines were obtained at the indicated times. At euthanasia, blood, urines, kidneys were harvested. In some experiments, spleens, hearts, and bone marrow (BM) in femurs and tibias were harvested as well. Tissues were fixed in 4% paraformaldehyde and paraffin embedded for immunohistochemical analysis, snap-frozen in Optimal Cutting Temperature (OCT), or stored at −80° C. for mRNA or protein analysis.
(§3) Mouse blood counts were analyzed using a hematology analyzer (ProCyte Dx; IDEXX Laboratories). Mouse serum creatinine, blood urea nitrogen, urinary albumin, and urinary creatinine were evaluated using an AU5800 (Beckman Coulter) autoanalyzer. Serum anti-dsDNA measurement was performed according to the manufacturer's instruction using mouse anti-dsDNA ELISA kit (LBIS). The absorbance was measured using Ininite M Nano (TECAN).
(§4) 4-μm kidney sections were stained with periodic acid-Schiff (PAS), Masson's Trichrome (MT), Periodic acid metenamine silver (PAM) or Hematoxylin and Eosin (HE) staining for histological analysis. The degree of glomerular lesions was evaluated using the following scoring system: 0=no lesion, 1=affecting up to 25% of the glomerulus, 2=affecting 25-50% of the glomerulus, 3=affecting 50-75% of the glomerulus, and 4=affecting 75-100%. At least 50 glomeruli per sample were measured for each analysis. An indirect immunoperoxidase method was used for immunohistochemistry. Briefly, after deparaffinization, antigen retrieval was performed with citrate buffer (pH6) or Tris-EDTA buffer (pH9 or pH6) using microwave or high temperature (95° C.). Endogenous peroxidase activity was quenched using 3% hydrogen peroxide; nonspecific protein binding was blocked using 2.5% normal horse serum (Vector Laboratories), and endogenous biotin activity was quenched using the Avidin/Biotin Blocking Kit (Vector Laboratories). When using mouse primary antibodies on mouse tissue, Klear mouse blocking reagent (Diagomics) was used to block endogenous mouse immunoglobulins. After blocking, the tissue sections were incubated with the primary antibodies overnight at 4° C. The following primary antibodies were used: rabbit anti-Ki67 antibody (SP6; Thermo Fisher Scientific), rabbit anti-P-S6RP antibody (D68F8; Cell Signaling Technology), mouse anti-P-AKT (Ser473) antibody (587F11; Cell Signaling Technology), rabbit anti-P-AKT (Thr308) antibody (C31E5E; Cell Signaling Technology), mouse anti-S6RP antibody (54E2; Cell Signaling Technology), chicken anti-GFP antibody (Abcam), guinea pig anti-Nephrin antibody (GP-N2; Progen), rabbit anti-Podocin antibody (P0372; Sigma Aldrich), mouse anti-WTI antibody (6F-H2; DAKO). The corresponding secondary antibodies including anti-mouse IgG, anti-rabbit IgG, anti-guinea pig IgG, biotinylated anti-rabbit IgG (Vector Laboratories), and biotinylated anti-mouse IgG (Vector Laboratories) were applied. […]

[1] = test system: uninephrectomized PIK3CA^Pod-HO mice; assay: as above
Source text: as §1, §2, §3, §4

MRL-lpr mice = MRL-lpr mice (lupus nephritis model) treated from 8 weeks old till death
Source text: A. Urinary albumin to creatinine ratio B. Blood urea nitrogen level, C. kidney to body weight ratio of NZBWF1/J mice at the time of sacrifice (4 weeks following either sham operation or uninephrectomy followed by the treatment either with vehicle or alpelisib) (n=5-15 mice per group). D. Representative P-S6RP/Nephrin coimmunofluorescence staining of kidneys from 4 weeks following either sham operation or uninephrectomy followed by the treatment either with vehicle or alpelisib) (n=4-6 mice per group). Scale bar […]. E. P-S6RP mean intensity quantification (n=4-6 mice per group). F. Col3a, G. Col1a, and H. Tnfα quantification of qRT-PCR analysis in the kidney cortex of kidneys at the time of sacrifice (4 weeks following either sham operation or uninephrectomy followed by the treatment either with vehicle or alpelisib) (n=5-15 mice per group). I. Kaplan-Meier survival curves of MRL-lpr mice treated either with vehicle or alpelisib (n=13-14 mice per group). J. Urinary albumin to creatinine ratio of MRL-lpr mice treated either with vehicle or alpelisib from 8 weeks old till death (n=13-14 mice per group). K. Vehicle treated mice, and L. alpelisib treated mice of the trajectory of urinary albumin to creatinine ratio of MRL-lpr mice (n=13-14 mice per group).
as §2, §3
4-μm kidney sections were stained with periodic acid-Schiff (PAS), Masson's Trichrome (MT), Periodic acid metenamine silver (PAM) or Hematoxylin and Eosin (HE) staining for histological analysis. The degree of glomerular lesions was evaluated using the following scoring system: 0=no lesion, 1=affecting up to 25% of the glomerulus, 2=affecting 25-50% of the glomerulus, 3=affecting 50-75% of the glomerulus, and 4=affecting 75-100%. At least 50 glomeruli per sample were measured for each analysis. An indirect immunoperoxidase method was used for immunohistochemistry. Briefly, after deparaffinization, antigen retrieval was performed with citrate buffer (pH6) or Tris-EDTA buffer (pH9 or pH6) using microwave or high temperature (95° C.). Endogenous peroxidase activity was quenched using 3% hydrogen peroxide; nonspecific protein binding was blocked using 2.5% normal horse serum (Vector Laboratories), and endogenous biotin activity was quenched using the Avidin/Biotin Blocking Kit (Vector Laboratories). When using mouse primary antibodies on mouse tissue, Klear mouse blocking reagent (Diagomics) was used to block endogenous mouse immunoglobulins. After blocking, the tissue sections were incubated with the primary antibodies overnight at 4° C. […]

[2] = 2 weeks after uninephrectomy, vs vehicle

Cc1nc(NC(=O)N2CCC[C@H]2C(N)=O)sc1-c1ccnc(C(C)(C)C(F)(F)F)c1 [alpelisib, Alpelisib]
phenotype of uninephrectomized PIK3CA^WT control mice (uninephrectomized mice): no particular phenotype, without proteinuria or kidney dysfunction
expression of podocytes markers [1, 2]: higher expression of podocytes markers
glomerular lesion score [1, 2]: preserved glomerular
kidney function (serum creatinine, BUN) [1, 2]: better kidney function
podocyte AKT/mTOR pathway activation [1, 2]: decreased podocyte AKT/mTOR pathway activation
tubular dilation [1, 2]: fewer tubular dilation
proteinuria (urinary albumin to creatinine ratio) ([1]; nephrectomy at 8 weeks old, 2 weeks treatment): significantly decreased
kidney lesions (title of FIG. 2) ([1]; uninephrectomized PIK3CAPod-HO mice): improves kidney lesions
kidney to body weight ratio (MRL-lpr mice; at sacrifice, vs vehicle): tendency to have a lower kidney to body weight ratio
survival / life expectancy (Kaplan-Meier) (MRL-lpr mice; females, from 8 weeks old till death): significant extension of life expectancy
trajectory of albuminuria before and after treatment introduction (MRL-lpr mice; from 8 weeks old): proteinuria improvement
glomerular lesions, kidney examination (MRL-lpr mice; vs vehicle): no glomerular lesions
kidney function (MRL-lpr mice; vs vehicle): improved kidney function
proteinuria (urinary albumin to creatinine ratio) (MRL-lpr mice; vs vehicle): less proteinuria
